Legend:
[1] = Stability in chronic wound extracts (CWE), capillary zone electrophoresis; type: in vitro ADME, human; details: 37°C, CZE; for Percentage intact, CWE 2h / Percentage intact, CWE 4h / Percentage intact, CWE 8h / Percentage intact, CWE 16h / Percentage intact, CWE 24h / Percentage intact, CWE 48h / Percentage intact, CWE 72h / Percentage intact, CWE 96h: 1 mg/ml in PBS mixed 1:1 with CWE (1 mg/ml protein, pool of 5 donors) in PBS, UV 200 nm, ratio to imidazole
Outline: (§1)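 Peptides or cytokines (1 mg/ml stock) mixed 1:1 with PBS or pooled chronic-wound extract (1 mg/ml protein, three pools of five donors), ±protease inhibitor cocktail, at 37 °C for up to 96 h. Analyzed by capillary zone electrophoresis (pH 2.5 phosphate, 200 nm), with peak ratio to imidazole standard relative to 0 h as % intact.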

[2] = Stability in PBS, capillary zone electrophoresis; type: physicochemical; details: 1 mg/ml in PBS mixed 1:1 with PBS, 37°C, 24 h, CZE, UV 200 nm, ratio to imidazole internal standard, 0 h = 100%
Experimental: To determine the stability of the different peptides in CWE, histatins and cytokines were dissolved in PBS at 1 mg/ml. Histatins and cytokines were incubated in a 1:1 ratio with (i) PBS, (ii) CWE in PBS, or (iii) CWE in PBS containing PIC, in a total volume of 25 μl. Imidazole (Sigma-Aldrich) was added as an internal standard, with a final concentration of 100 μg/ml. The mixtures were incubated at 37°C, and samples were taken at 0, 24, 48, 72 and 96 h. For histatins containing mixtures, additional samples were taken after 2, 4, 8 and 16 h of incubation.
The samples were analyzed with a BioFocus 2000 capillary zone electrophoresis system (Bio-Rad Laboratories, Hercules, CA, USA) equipped with an uncoated fused-silica capillary of internal diameter 50 μm and a length of 24 cm. Samples were loaded by pressure injection (5 psi/sec). Separation was performed at 10 kV (cathode at the detector side) at 20°C using 0.1 M phosphate buffer (pH 2.5) as electrolyte and monitored continuously at 200 nm. Peaks were quantified with the BioFocus Integrator software. In order to quantify the percentage of intact peptides remaining after incubation with CWE, the ratios of histatins, rhIL-6 or rhCXCL8 to internal standard was set at 100% at 0h, and the ratios at the other incubation time points were related to this.

[3] = Stability in CWE with protease inhibitor cocktail (PIC), capillary zone electrophoresis; type: in vitro ADME, human; details: 37°C, CZE, 0 h = 100%; for Percentage intact, CWE + PIC 2h / Percentage intact, CWE + PIC 4h / Percentage intact, CWE + PIC 8h / Percentage intact, CWE + PIC 16h / Percentage intact, CWE + PIC 24h / Percentage intact, CWE + PIC 48h / Percentage intact, CWE + PIC 72h / Percentage intact, CWE + PIC 96h: 1 mg/ml in PBS mixed 1:1 with CWE (1 mg/ml protein, pool of 5 donors) in PBS containing PIC (final 1:140 v/v), ratio to imidazole
Outline: as §1

- Percentage intact, CWE 2h ([1]; 0 h = 100%, experiment 1 of 3): 94.125%
- Percentage intact, CWE 2h ([1]; 0 h = 100%, experiment 2 of 3): 97.8952%
- Percentage intact, CWE 2h ([1]; 0 h = 100%, experiment 3 of 3): 100%
- Percentage intact, CWE 4h ([1]; 0 h = 100%, experiment 1 of 3): 84.7219%
- Percentage intact, CWE 4h ([1]; 0 h = 100%, experiment 2 of 3): 88.931%
- Percentage intact, CWE 4h ([1]; 0 h = 100%, experiment 3 of 3): 83.8816%
- Percentage intact, CWE 8h ([1]; 8 h, 0 h = 100%, experiment 1 of 3): 81.3497%
- Percentage intact, CWE 8h ([1]; 8 h, 0 h = 100%, experiment 2 of 3): 83.9314%
- Percentage intact, CWE 8h ([1]; 8 h, 0 h = 100%, experiment 3 of 3): 78.1579%
- Percentage intact, CWE 16h ([1]; 0 h = 100%, experiment 1 of 3): 71.6467%
- Percentage intact, CWE 16h ([1]; 0 h = 100%, experiment 2 of 3): 74.8159%
- Percentage intact, CWE 16h ([1]; 0 h = 100%, experiment 3 of 3): 54.5266%
- Percentage intact, CWE 24h ([1]; 24 h, 0 h = 100%, experiment 1 of 3): 54.5627%
- Percentage intact, CWE 24h ([1]; 24 h, 0 h = 100%, experiment 2 of 3): 58.7294%
- Percentage intact, CWE 24h ([1]; 24 h, 0 h = 100%, experiment 3 of 3): 52.1934%
- Percentage intact, CWE 48h ([1]; 0 h = 100%, experiment 1 of 3): 29.9428%
- Percentage intact, CWE 48h ([1]; 0 h = 100%, experiment 2 of 3): 34.7264%
- Percentage intact, CWE 48h ([1]; 0 h = 100%, experiment 3 of 3): 26.5123%
- Percentage intact, CWE 72h ([1]; 0 h = 100%, experiment 1 of 3): 20.4492%
- Percentage intact, CWE 72h ([1]; 0 h = 100%, experiment 2 of 3): 21.8694%
- Percentage intact, CWE 72h ([1]; 0 h = 100%, experiment 3 of 3): 20.7179%
- Percentage intact, CWE 96h ([1]; 0 h = 100%, experiment 1 of 3): 15.3884%
- Percentage intact, CWE 96h ([1]; 0 h = 100%, experiment 2 of 3): 19.0259%
- Percentage intact, CWE 96h ([1]; 0 h = 100%, experiment 3 of 3): 11.1869%
- remaining at 8 h, 0.5 mg/ml ([1]; human, chronic wound extracts (CWE), 1 mg/ml in PBS mixed 1:1 with CWE (1 mg/ml protein, pools of 5 donors), 8 h, 0 h = 100%, mean of 3 independent experiments, read-out: Original amount of peptide remaining intact after 8 h in CWE): 81%
- remaining at 24 h, 0.5 mg/ml ([1]; human, chronic wound extracts (CWE), 1 mg/ml in PBS mixed 1:1 with CWE (1 mg/ml protein, pools of 5 donors), 24 h, 0 h = 100%, mean of 3 independent experiments, read-out: Original amount of peptide remaining intact after 24 h in CWE): 55%
- metabolised at 8 h, 0.5 mg/ml ([1]; human, chronic wound extracts (CWE), incubation with chronic wound extracts, 8 h, read-out: Breakdown (degradation) in CWE in 8 h): ~20%
- Percentage intact, PBS 24h ([2]; experiment 1 of 3): 91.5758%
- Percentage intact, PBS 24h ([2]; experiment 2 of 3): 95.461%
- Percentage intact, PBS 24h ([2]; experiment 3 of 3): 100.575%
- Percentage intact, CWE + PIC 2h ([3]; experiment 1 of 3): 89.1635%
- Percentage intact, CWE + PIC 2h ([3]; experiment 2 of 3): 89.9717%
- Percentage intact, CWE + PIC 2h ([3]; experiment 3 of 3): 92.8798%
- Percentage intact, CWE + PIC 4h ([3]; experiment 1 of 3): 81.2396%
- Percentage intact, CWE + PIC 4h ([3]; experiment 2 of 3): 77.3258%
- Percentage intact, CWE + PIC 4h ([3]; experiment 3 of 3): 92.4896%
- Percentage intact, CWE + PIC 8h ([3]; experiment 1 of 3): 74.181%
- Percentage intact, CWE + PIC 8h ([3]; experiment 2 of 3): 79.1445%
- Percentage intact, CWE + PIC 8h ([3]; experiment 3 of 3): 86.6559%
- Percentage intact, CWE + PIC 16h ([3]; experiment 1 of 3): 65.982%
- Percentage intact, CWE + PIC 16h ([3]; experiment 2 of 3): 74.0107%
- Percentage intact, CWE + PIC 16h ([3]; experiment 3 of 3): 77.3109%
- Percentage intact, CWE + PIC 24h ([3]; 24 h, experiment 1 of 3): 76.8799%
- Percentage intact, CWE + PIC 24h ([3]; 24 h, experiment 2 of 3): 76.3765%
- Percentage intact, CWE + PIC 24h ([3]; 24 h, experiment 3 of 3): 70.9573%
- Percentage intact, CWE + PIC 48h ([3]; experiment 1 of 3): 68.226%
- Percentage intact, CWE + PIC 48h ([3]; experiment 2 of 3): 72.203%
- Percentage intact, CWE + PIC 48h ([3]; experiment 3 of 3): 63.9246%
- Percentage intact, CWE + PIC 72h ([3]; experiment 1 of 3): 63.1229%
- Percentage intact, CWE + PIC 72h ([3]; experiment 2 of 3): 65.5213%
- Percentage intact, CWE + PIC 72h ([3]; experiment 3 of 3): 53.9233%
- Percentage intact, CWE + PIC 96h ([3]; experiment 1 of 3): 57.543%
- Percentage intact, CWE + PIC 96h ([3]; experiment 2 of 3): 57.4907%
- Percentage intact, CWE + PIC 96h ([3]; experiment 3 of 3): 51.0863%
- remaining at 24 h, 0.5 mg/ml ([3]; human, with protease inhibitor cocktail (PIC), CWE with protease inhibitor cocktail (final 1:140 v/v), 24 h, mean of 3 independent experiments, read-out: Remaining fraction of intact peptide after 24 h in CWE + PIC): 74%
Substance: cyclo(DNLPETGGDSHEKRHHGYRRKFHEKHHSHREFPFYGDYGSNYLY) [cHst1]

Reference: paper PMC4809600, “The Influence of Chronic Wound Extracts on Inflammatory Cytokine and Histatin Stability” (PLoS ONE, 2016)
